According to patent publication US20240166627A1, “Terpyridinedione compound or salt thereof, and preparation method and application thereof” (SHENZHEN SALUBRIS PHARMACEUTICALS CO., LTD., priority 2021, published 2024):
Converted amounts (≈) assume the structure as drawn.

What was measured:
[1] = Pharmacokinetic experiment in Beagle dogs (IV and PO); type: in vivo; details: male, dog, plasma
Text: Polyethylene glycol 400 (batch number: GORKREUT, Saen Chemical Technology (Shanghai) Co., Ltd.); DMSO (batch number: 20200319, GHTECH (Guangdong) Co., Ltd.); and normal saline (batch number: C20052604, Jiangxi Kelun Pharmaceutical Co., Ltd.). An LC-MS instrument (Thermo Fisher Ultimate 3000 UPLC, TSQ QUANTUM ULTRA TSQ Quantum GC).
5 male Beagle dogs with weights being 5 kg to 7 kg, purchased from Beijing Mars Biotechnology Co., Ltd. […]
After the above mixture is given to the dogs through intragastric administration (n=3) or intravenous administration (n=2), about 1 mL of blood is collected from the forelimb or hindlimb vein with a scalp needle, respectively, at 5 min (intravenous administration only), 15 min, 30 min, 1 h, 2 h, 4 h, 6 h, 8 h, 24 h to put into blood collection tubes containing EDTA-K2 anticoagulant; centrifugation is performed for 10 min at 4000 rpm to separate plasma; and then the tubes are stored at −80° C. for testing.
A certain amount of a test sample is accurately weighted and dissolved with DMSO to 2 mg/mL, as a stock solution. The stock solution is diluted to 30000, 10000, 3000, 1000, 300, 100, 50, 30, and 10 ng/mL by using acetonitrile:water (1:1), to obtain standard curve working solutions. 5 μL of the working solution is added to 45 μL of blank canine plasma; and well mixing is performed through vortex, to prepare into standard curve samples equivalent to plasma concentrations of 3000, 1000, 300, 100, 30, 10, 5, 3, and 1 ng/mL. 30 μL of the standard curve sample and the collected plasma sample (plasma collected at 5 min, 15 min, and 30 min of intravenous administration is diluted 5-fold) are added to 150 μL of a propranolol acetonitrile solution (internal standard, 50 ng/mL) to precipitate protein, then 100 μL of water is added to well mix through vortex; centrifugation is performed for 5 min at 4000 rpm; and supernatant is taken for LC-MS analysis. LC-MS detection conditions include the following.
Chromatographic column: Waters ACQUITY™ PREMIER HSS T3, 50*2.1 mm, 1.8 μm.
Mobile phase A: water (0.1% formic acid); mobile phase B: acetonitrile; flow rate: 0.5 mL/min; and gradient elution is shown in Table 3 below.
After LC-MS detection of blood drug concentration, and a non-compartment model of WinNonlin 6.1 software is adopted to calculate pharmacokinetic parameters of beagle dogs after administration.

p38β = p38β (Homo sapiens, UniProt Q15759); assay: p38β kinase screening experiment (ADP-Glo); type: biochemical; details: ATP 100 μM in the substrate/ATP mix, 60 min; read-out: IC50 value that the compound inhibits p38β
Method: A certain amount of the compound is weighed, prepared into a 10/50 mM mother solution with DMSO, diluted 3 folds with DMSO, and diluted to 10 concentration points as a compound working solution.
50 nL of the diluted compound working solution is transferred to each well of a reaction plate (784075, Greiner) with Echo 655, then 2.5 μL (2 ng/μL) of a p38β kinase solution is added; after 10 minutes at room temperature, 2.5 μL of a mixed solution of a kinase substrate (0.4 mg/mL) and ATP (100 μM) is added, for reaction for 60 min at room temperature; and 4 μL of an ADP Glo reagent is added, for incubation for 40 min at room temperature. 8 μL of a kinase detection reagent is added, for incubation for 40 min at room temperature; and finally a light-emitting signal is read on Envision 2104.

[2] = test system: production of TNFα in U937; assay: Releasing TNFα from U937 induced by LPS; type: cell-based; details: Homo sapiens, U-937; PMA-differentiated U937, LPS 100 ng/ml, 4 h; read-out: IC50 value that the compound inhibits the production of TNFα
Text: Cytokine regulation in human monocytes has shown that the p38 pathway is the key to the biosynthesis of a plurality of pro-inflammatory cytokines including TNFα, IL-1β and IL-6. Therefore, the inhibition of the p38 MAPK pathway is to reduce inflammatory response by reducing the biosynthesis of the pro-inflammatory cytokines. […] This is a reflection of the effect of the compound in the present invention to facilitate reduction of inflammation, which is useful in the treatment of various diseases, including chronic inflammatory diseases, acute inflammatory diseases, or self-inflammatory diseases. The potency and efficacy of the p38 inhibitor in blocking cytokine production are evaluated using a human U937 cell line.
A 1640 medium with an article number being A10491-01, Gibco; penicillin-streptomycin with an article number being 15140-122, Gibco; fetal bovine serum with an article number being 10099-141C, Gibco; PBS with an article number being 10010-031, Gibco; LPS with an article number being L2880, Sigma; PMA with an article number being P1585, Sigma; dimethyl sulfoxide with an article number being D8418-1L, Sigma; and a TNFα kit with an article number being K151QWD-4, MSD.
A 96-well plate with an article number being 3599, Corning; a plate-vibrating device with an article number being QB-9002, QILINBEIER; a centrifuge with an article number being 5810R, Eppendorf; a carbon dioxide incubator with an article number being 371, Thermo; a counter with an article number being C10281, Gibco; a microscope with an article number being CKX41, OLYMPUS; and an MSD plate reader with an article number being 1201 MESO SECTOR 600, MSD.
U937, ATCC with an article number being CRL-1593.2.
About 2 mg of a drug is weighted; a mother solution is prepared to 10 mM (which is calculated by free alkali) by means of DMSO; and the mother solution is diluted 10-fold to 1 mM, and then is successively diluted 4-fold to 250 μM, 62.5 μM, 15.6 μM, 3.9 μM, 0.97 μM, 0.24 μM, and 0.061 μM. The above series of diluted DMSO drugs is diluted 20-fold as working solutions by using media.
At Day 0, 10000/well inoculation is performed, stimulation is performed for 48 h with 20 ng/ml of PMA, and culture is performed at 37° C., 5% CO2. • At Day 2, 1. Supernatant is removed from differentiated U937, cleaning is performed once with PBS, and 96 μl of the 1640 medium is added. • 2. 2 μl of the compound containing (DMSO with a final concentration being 0.1%), and culture is performed for 30 min at 37° C., 5% CO2. • 3. 2 μl of LPS (a final concentration being 100 ng/ml) is added, cells are stimulated, and culture is performed for 4 h at 37° C., 5% CO2. • 4. Centrifugation is performed, supernatant is taken, and content of TNFα in the supernatant is determined through ELISA.
The content of TNFα corresponding to each well is calculated by using a standard curve in the kit.
The compound IC50 is calculated by using a GraphPad nonlinear fitting formula, and for an experimental result, refer to Table 1.

[3] = Determination of solubility; type: physicochemical; details: aqueous buffer, thermodynamic from solid, 37° C. 1 h
Method: About 0.5 mg of a to-be-tested sample in a centrifuge tube is weighted, an appropriate amount of DMSO is added to completely dissolve the sample, and then methanol is added to make up to 1 ml.
(If there are more pH values to be investigated, the preparation method may be deduced by analogy).
3. The prepared control solution and test solution are simultaneously put into a 37° C. water bath and heated for 1 h, after 1 h, the solutions are taken out and cooled to room temperature, and then the solutions are filtered with a 0.22 μm filter membrane for sample injection.
4. The concentration of the sample in the test solution is calculated according to C=(A*(ms/vs))/AS, and experiment results are shown in Table 2.
Note: ms, vs and AS are the weight, volume and peak area of the sample in the control solution, respectively.
A is the peak area of the test solution.

p38α/MK2 complex = p38α/MK2 complex (Homo sapiens, UniProt P49137+Q16539); assay: p38α/MK2 complex kinase screening experiment (IMAP FP); type: biochemical; details: p38α 0.2 nM, MK2 unactive 1 nM, HSP27 substrate 1 μM, ATP 10 μM; read-out: IC50 value that the compound inhibits p38α/MK2 complex
Method: A certain amount of a drug is weighted and prepared into a 10 mM of mother solution by using DMSO; the mother solution is diluted to 100 μM (100× working solution) in two steps; and then, the solution is diluted 3-fold to 33.33 μM, 11.11 μM, 3.70 μM, 1.23 μM, 0.41 μM, 0.14 μM, 0.046 μM, 0.015 μM, and 0.005 μM, successively. DMSO control is also arranged.
Then, a series of diluted DMSO drugs are diluted 25 folds with 1×IMAP Reaction Buffer as a 4× drug working solution.
10 gradient concentrations and 2 duplicated wells are set to each group of compounds; and a DMSO control group and a negative control group (DMSO, no ATP) are additionally set.
• c), after 1 h of incubation at room temperature, 1× Progressive Binding Solution is added to end the enzymatic reaction; after 30 min of incubation, a BMGPHERASTER FSX multifunctional microplate reader is used to detect a Fluorescence Polarization (FP) signal [FP(Ex485/Em520/Em520 nm)].

Chain of p38α/MK2 complex (Q16539 whole entry): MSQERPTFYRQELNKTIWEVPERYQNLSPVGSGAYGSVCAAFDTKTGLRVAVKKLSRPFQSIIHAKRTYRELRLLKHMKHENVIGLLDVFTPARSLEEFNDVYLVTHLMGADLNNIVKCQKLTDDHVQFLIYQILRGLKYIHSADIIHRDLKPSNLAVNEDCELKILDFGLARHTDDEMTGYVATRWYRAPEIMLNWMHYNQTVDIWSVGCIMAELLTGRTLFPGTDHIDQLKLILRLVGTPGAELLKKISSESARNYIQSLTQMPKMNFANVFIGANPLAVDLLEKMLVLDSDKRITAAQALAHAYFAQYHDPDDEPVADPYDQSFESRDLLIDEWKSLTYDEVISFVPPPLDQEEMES
Chain of p38α/MK2 complex (P49137 whole entry): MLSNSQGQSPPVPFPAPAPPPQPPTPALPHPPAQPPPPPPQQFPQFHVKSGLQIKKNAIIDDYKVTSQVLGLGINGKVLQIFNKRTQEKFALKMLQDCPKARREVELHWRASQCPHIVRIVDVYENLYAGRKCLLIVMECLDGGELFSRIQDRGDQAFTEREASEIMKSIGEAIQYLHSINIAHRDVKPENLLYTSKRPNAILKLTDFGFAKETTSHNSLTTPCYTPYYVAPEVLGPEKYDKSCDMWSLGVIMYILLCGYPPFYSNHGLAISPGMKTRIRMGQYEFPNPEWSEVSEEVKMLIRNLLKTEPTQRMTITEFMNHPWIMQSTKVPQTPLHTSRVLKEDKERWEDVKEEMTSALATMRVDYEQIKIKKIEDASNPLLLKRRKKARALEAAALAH
Chain of p38β (Q15759 whole entry): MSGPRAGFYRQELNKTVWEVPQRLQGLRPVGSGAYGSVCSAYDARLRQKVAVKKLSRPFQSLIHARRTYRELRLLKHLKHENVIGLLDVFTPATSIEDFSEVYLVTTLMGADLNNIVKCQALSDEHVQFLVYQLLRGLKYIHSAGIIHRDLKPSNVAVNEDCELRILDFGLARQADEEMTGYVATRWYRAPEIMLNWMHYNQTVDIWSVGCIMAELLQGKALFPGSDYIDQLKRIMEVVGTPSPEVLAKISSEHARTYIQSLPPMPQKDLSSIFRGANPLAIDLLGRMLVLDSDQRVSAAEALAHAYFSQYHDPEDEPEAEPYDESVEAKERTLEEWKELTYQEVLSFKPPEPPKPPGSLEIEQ

IC50 [2] | IC50 (p38α/MK2 complex) | further results | Compound
10.4 nM |  | AUC(0-t) ([1]; IV 1 mg/kg): 1530 ng·h/mL; Cmax ([1]; IV 1 mg/kg): 657 ng/mL; clearance ([1]; IV 1 mg/kg): 10.7 mL/min/kg; AUC(0-t) ([1]; PO 5 mg/kg): 14400 ng·h/mL; Cmax ([1]; PO 5 mg/kg): 2000 ng/mL; bioavailability ([1]; PO 5 mg/kg vs IV 1 mg/kg): 189%; IC50 (p38β): 5970 nM; solubility at 1 h ([3]; pH = 2.0, PBS buffer): 56.8 µg/mL (≈ 111 µM); solubility at 1 h ([3]; pH = 7.4, PBS buffer): 26.8 µg/mL (≈ 52.1 µM) | Cc1cnc(-c2ccnc(C(C)(C)O)n2)cc1-n1c(C)cc(OCc2ncc(F)cc2F)c(Cl)c1=O (racemic) [Comparative example 1]
3.31 nM | 3.35 nM |  | Cc1cnc(-n2cccc(C(C)(C)O)c2=O)cc1-n1c(C)cc(OCc2ncc(Br)cc2F)c(Cl)c1=O [Embodiment 16, 3″-chloro-4″-((3-fluoro-5-bromopyridine-2-yl)methoxy)-3-(2-hydroxypropane-2-yl)-5′,6″-dimethyl-2H,2″H-[1,2′:4′,1″-terpyridine]-2,2″-diketone]
1.73 nM | 1.33 nM |  | Cc1cnc(-n2cccc(C(C)(C)O)c2=O)cc1-n1c(C)cc(OCc2cccc(F)c2F)c(Cl)c1=O [Embodiment 17, 3″-chloro-4″-((2,3-difluorobenzyl)oxy)-3-(2-hydroxypropane-2-yl)-5′,6″-dimethyl-2H,2″H-[1,2′:4′,1″-terpyridine]-2,2″-diketone]
2.84 nM | 2.26 nM |  | CCC(C)(O)c1cccn(-c2cc(-n3c(C)cc(OCc4ncc(F)cc4F)c(Cl)c3=O)c(C)cn2)c1=O (stereo not drawn) [Embodiment 26, 3″-chloro-4″-((3,5-difluoropyridine-2-yl)methoxy)-3-(2-hydroxybutane-2-yl)-5′,6″-dimethyl-2H,2″H-[1,2′:4′,1″-terpyridine]-2,2″-diketone]
 | 1.58 nM |  | Cc1cnc(-n2cccc(C(C)(C)O)c2=O)cc1-n1c(C)cc(OCc2ncc(F)cc2F)c(Br)c1=O [Embodiment 41, 3″-bromo-4″-((3,5-difluoropyridine-2-yl)methoxy)-3-(2-hydroxypropane-2-yl)-5′,6″-dimethyl-2H,2″H-[1,2′:4′,1″-terpyridine]-2,2″-diketone]
 | 3.14 nM |  | CCc1cnc(-n2cccc(C(C)(C)O)c2=O)cc1-n1c(C)cc(OCc2ncc(F)cc2F)c(Cl)c1=O [Embodiment 42, 3″-chloro-5′-ethyl-4″-((3,5-difluoropyridine-2-yl)methoxy)-3-(2-hydroxypropane-2-yl)-6″-methyl-2H,2″H-[1,2′:4′,1″-terpyridine]-2,2″-diketone]
